Reference: patent publication US20100099564A1, “HERBICIDE COMBINATION COMPRISING DIMETHOXYTRIAZINYL-SUBSTITUTED DIFLUOROMETHANESULFONYLANILIDES” (BAYER CROPSCIENCE AG, priority 2008, published 2010)
Read-outs that look alike come from different tables or passages of the source.

Columns and labels:
Format in all cases: in vivo
Viola tricolor (VIOTR) = assay: Post-emergence action, greenhouse pot test, visual scoring: VIOTR; settings: 10 DAT
Method: (§1) Seeds or rhizome pieces of mono- and dicotyledonous harmful and useful plants were placed in peat pots (diameter 4 cm) filled with sandy loam and then covered with soil. The pots were kept in a greenhouse under optimum conditions. In addition, harmful plants encountered in paddy rice cultivation were cultivated in pots with a water level 2 cm above the soil surface.
(§2) About three weeks after the start of the cultivation, the test plants were treated at the 2- to 3-leaf stage. The herbicides, formulated as powder or liquid concentrates, were, either alone or in the combinations according to the invention, sprayed in various dosages on to the green parts of the plants using an application rate of 600 l of water/ha (converted). For further cultivation of the plants, the pots were then again kept under optimum conditions in a greenhouse.
(§3) The visual scoring of the herbicidal effects was carried out in intervals up to 21 days after the treatment. Scoring was carried out in percent in comparison to the untreated control plants. 0%=no herbicidal activity, 100%=complete herbicidal activity=complete kill.
(§4) The percentages from the treatments with the herbicides alone (=individual application) and with the combinations according to the invention (=mixtures) were employed to calculate interactions using the method of Colby. When the observed efficacies of the mixtures exceed the formal sum of the values of the tests with individual applications, they also exceed the expected value according to Colby, which is calculated using the formula below (cf. S. R. Colby; in Weeds 15 (1967) pp. 20 to 22):
(§5) Here: • A, B=activity of components A and B in percent at a dosage of a and b g of ai/ha (=gramm of active substance per hectare), respectively. • E=expected value in % at a dosage of a+b g of ai/ha.
(§6) The combinations according to the invention of herbicides from group (A) with herbicides from group (B) were tested on a broad spectrum of important harmful plants (weed grasses, broad-leaved weeds/Cyperaceae) and useful plants: Triticum aestivum (TRZAS), Stellaria media (STEME), Lolium multiflorum (LOLMU), Veronica persica (VERPE), Alopecurus myosuroides (ALOMY), Matricaria inodora (MATIN), Brassica napus (BRSNW), Viola tricolor (VIOTR), Avena fatua (AVEFA), Amaranthus retroflexus (AMARE), Zea mays (ZEAMX), Pharbitis purpurea (PHBPU), Setaria viridis (SETVI), Fallopia (ex Polygonum) convolvulus (POLCO), Echinochloa crusgaffi (ECHCG), Abuthilon theophrasti (ABUTH), Cyperus esculentus (CYPES), Oryza sativa (ORYSA).
(§7) Of particular interest are the results shown in the tables (Tab.) below, where the following key is used: • (1) EPPO code (former Bayer code) for the treated plant (see above) • (2) Time of scoring: DAT (days after treatment) • (3) Component A tested (identifying number) • (4) Component B tested (identifying number) • (5) Dosage component A [g of ai/ha] • (6) Dosage component B [g of ai/ha] • (7) % activity found • (8) E value (calculated according to Colby; see above) • (9) Comments: “SYNERGY” =synergistic interaction (E value<% activity found); “SAFENING”=safener action on useful plant (E value>% activity found)

[1] = system: Fallopia (ex Polygonum) convolvulus (POLCO); assay: Post-emergence action, greenhouse pot test, visual scoring: POLCO; settings: 21 DAT
Method: as §1, §2, §3, §4, §5, §6, §7

Avena fatua (AVEFA) = assay: Post-emergence action, greenhouse pot test, visual scoring: AVEFA; settings: 21 DAT
Method: as §1, §2, §3, §4, §5, §6, §7

Setaria viridis (SETVI) = assay: Post-emergence action, greenhouse pot test, visual scoring: SETVI; settings: Setaria viridis, post-emergence, 504 h, 21 DAT, read-out: % activity found
Method: as §1, §2, §3, §4, §5, §6, §7

[2] = system: Matricaria inodora (MATIN); assay: Post-emergence action, greenhouse pot test, visual scoring: MATIN
Method: as §1, §2, §3, §4, §5

Stellaria media (STEME) = assay: Post-emergence action, greenhouse pot test, visual scoring: STEME; settings: 10 DAT
Method: as §1, §2, §3, §4, §5, §6, §7

[3] = system: Pharbitis purpurea (PHBPU); assay: Post-emergence action, greenhouse pot test, visual scoring: PHBPU
Method: as §1, §2, §3, §4, §5, §6, §7

Oryza sativa (ORYSA) = assay: Post-emergence action, greenhouse pot test, visual scoring: ORYSA; settings: Oryza sativa, post-emergence, read-out: % activity found
Method: as §1, §2, §3, §4, §5, §6, §7

[4] = system: Cyperus esculentus (CYPES); assay: Post-emergence action, greenhouse pot test, visual scoring: CYPES; settings: 21 DAT
Method: as §1, §2, §3, §4, §5

[5] = system: Triticum aestivum (TRZAS); assay: Post-emergence action, greenhouse pot test, visual scoring: TRZAS; settings: Triticum aestivum, post-emergence, read-out: % activity found; for plant injury at 200 g/ha: B 200 g of ai/ha
Method: as §1, §2, §3, §4, §5, §6, §7

[6] = system: Abuthilon theophrasti (ABUTH); assay: Post-emergence action, greenhouse pot test, visual scoring: ABUTH; settings: 21 DAT
Method: as §1, §2, §3, §4, §5, §6, §7

Zea mays (ZEAMX) = assay: Post-emergence action, greenhouse pot test, visual scoring: ZEAMX; settings: Zea mays, post-emergence, read-out: % activity found; for plant injury at 200 g/ha: B 200 g of ai/ha; for plant injury at 1200 g/ha: B 1200 g of ai/ha
Method: as §1, §2, §3, §4, §5, §6, §7

[7] = system: Lolium multiflorum (LOLMU); assay: Post-emergence action, greenhouse pot test, visual scoring: LOLMU; settings: 10 DAT, B 400 g of ai/ha
Method: as §1, §2, §3, §4, §5, §6, §7

[8] = system: Amaranthus retroflexus (AMARE); assay: Post-emergence action, greenhouse pot test, visual scoring: AMARE; settings: 10 DAT
Method: as §1, §2, §3, §4, §5

Veronica persica (VERPE) = assay: Post-emergence action, greenhouse pot test, visual scoring: VERPE
Method: as §1, §2, §3, §4, §5, §6, §7

[9] = system: Alopecurus myosuroides (ALOMY); assay: Post-emergence action, greenhouse pot test, visual scoring: ALOMY; settings: Alopecurus myosuroides, post-emergence, read-out: % activity found; for pest or weed control at 400 g/ha: B 400 g of ai/ha
Method: as §1, §2, §3, §4, §5

[10] = 504 h, 21 DAT, B 600 g of ai/ha
[11] = 240 h, 10 DAT, B 400 g of ai/ha

## CN(C(=O)COc1nc2ccccc2s1)c1ccccc1 [B3-4, 2-(2-benzothiazolyloxy)-N-methyl-N-phenylacetamide]
Viola tricolor (VIOTR); B 200 g of ai/ha
  % activity found: 0%
Viola tricolor (VIOTR); B 600 g of ai/ha
  % activity found: 0%
[1]; B 200 g of ai/ha
  % activity found: 0%
[1]; B 600 g of ai/ha
  % activity found: 0%
Avena fatua (AVEFA); B 200 g of ai/ha
  % activity found: 0%
Setaria viridis (SETVI); B 200 g of ai/ha
  pest or weed control at 200 g/ha: 30%
[2]; 10 DAT, B 200 g of ai/ha
  % activity found: 0%
[2]; 10 DAT, B 600 g of ai/ha
  % activity found: 0%
[2]; 21 DAT, B 200 g of ai/ha
  % activity found: 0%
[2]; 21 DAT, B 600 g of ai/ha
  % activity found: 20%
Stellaria media (STEME); B 200 g of ai/ha
  % activity found: 10%
[3]; 21 DAT, B 200 g of ai/ha
  % activity found: 0%
Oryza sativa (ORYSA); [10]
  plant injury at 600 g/ha: 20%
[4]; B 200 g of ai/ha
  % activity found: 0%
[4]; B 600 g of ai/ha
  % activity found: 0%
[5]; 240 h, 10 DAT
  plant injury at 200 g/ha: 10%
[5]; 504 h, 21 DAT
  plant injury at 200 g/ha: 0%
[6]; B 200 g of ai/ha
  % activity found: 0%
[6]; B 600 g of ai/ha
  % activity found: 0%
Zea mays (ZEAMX); 240 h, 10 DAT
  plant injury at 200 g/ha: 0%
Zea mays (ZEAMX); 504 h, 21 DAT
  plant injury at 200 g/ha: 0%
Zea mays (ZEAMX); [10]
  plant injury at 600 g/ha: 10%

## CCCCOCN(C(=O)CCl)c1c(CC)cccc1CC [B4-3, N-(butoxymethyl)-2-chloro-N-(2,6-diethylphenyl)acetamide]
[1]; B 400 g of ai/ha
  % activity found: 0%
[1]; B 1200 g of ai/ha
  % activity found: 0%
Avena fatua (AVEFA); B 1200 g of ai/ha
  % activity found: 50%
Setaria viridis (SETVI); B 400 g of ai/ha
  pest or weed control at 400 g/ha: 0%
[7]
  % activity found: 40%
[8]; B 400 g of ai/ha
  % activity found: 0%
[8]; B 1200 g of ai/ha
  % activity found: 0%
[2]; 10 DAT, B 400 g of ai/ha
  % activity found: 0%
[2]; 10 DAT, B 1200 g of ai/ha
  % activity found: 20%
[2]; 21 DAT, B 400 g of ai/ha
  % activity found: 0%
[2]; 21 DAT, B 1200 g of ai/ha
  % activity found: 40%
Stellaria media (STEME); B 400 g of ai/ha
  % activity found: 0%
[3]; 10 DAT, B 400 g of ai/ha
  % activity found: 0%
[3]; 10 DAT, B 1200 g of ai/ha
  % activity found: 0%
[3]; 21 DAT, B 400 g of ai/ha
  % activity found: 0%
[3]; 21 DAT, B 1200 g of ai/ha
  % activity found: 0%
Oryza sativa (ORYSA); [11]
  plant injury at 400 g/ha: 0%
[5]; [11]
  plant injury at 400 g/ha: 0%
Veronica persica (VERPE); 10 DAT, B 400 g of ai/ha
  % activity found: 0%
Veronica persica (VERPE); 10 DAT, B 1200 g of ai/ha
  % activity found: 0%
Veronica persica (VERPE); 21 DAT, B 1200 g of ai/ha
  % activity found: 20%
[6]; B 400 g of ai/ha
  % activity found: 0%
[9]; 240 h, 10 DAT
  pest or weed control at 400 g/ha: 20%
[9]; 504 h, 21 DAT
  pest or weed control at 400 g/ha: 0%
[9]; 504 h, 21 DAT, B 1200 g of ai/ha
  pest or weed control at 1200 g/ha: 50%
Zea mays (ZEAMX); 240 h, 10 DAT
  plant injury at 1200 g/ha: 20%
Zea mays (ZEAMX); 504 h, 21 DAT
  plant injury at 1200 g/ha: 0%
